In one assay the test system is DENV-2. The assay is described as follows: Direct ELISA cross-reactivity study, DENV-2. The class given is binding, Dengue virus (DENV). As to conditions: plates coated with 10^5 copies/mL of intact virus particles. How it is done: (§1) To optimize all parameters of the direct ELISA protocol, Pierce 96-Well Polystyrene Plates, (ThermoFisher Scientific) were coated overnight at 4° C. with different concentrations of intact virus particles (ZIKV or DENV). The intact virus particles were diluted using 100 mM NaHCO3, pH 9.6, and aliquots of 100 μL were dispensed into each well of the plate using a multichannel pipette. This buffer pH assured a strong hydrophobic binding interaction between polystyrene and virus particles.
(§2) Intact particles both ZIKV and DENV were provided by Dr. Watkins group (University of Miami, Dep. of Pathology). The samples were controlled and counted by focus forming assay and RT-PCR, the details were reported in a previous work (Magnani et al., 2017). The Intact particles of ZIKV were inactivated using gamma irradiation. Assay biohazardous steps were carried out according to standard safety procedures.
(§3) The cross-reactivity among Flaviviruses is a key parameter to be tested for this assay. Using the same ELISA protocol, the three clamp peptides (C3, C6 and C7) with higher sensitivity versus the intact ZIKV particles where employed to test the ability to discriminate ZIKV from the three serotypes of DENV (DENV-1, -2 and -3).
(§4) The results shown in FIG. 4 were obtained by coating clear 96-well plates with a solution of 10^^5 copies/mL of intact virus particles. […]

The test system of another assay is DENV-3. As to the kind of experiment: Direct ELISA cross-reactivity study, DENV-3. Particulars: plates coated with 10^5 copies/mL of intact virus particles. The format is binding, Dengue virus (DENV). How it is done:
as §1, §2, §3, §4

Assay [1] relates to intact ZIKV particles. The assay is described as follows: Direct ELISA of biotinylated peptides vs intact ZIKV particles. The class given is binding, Zika virus (ZIKV). As to conditions: dose-response curves. How it is done: as §1, §2
After coating the plates overnight, the intact virus particles were removed by washing five times with the washing buffer (PBST) 10 mM PBS pH 7.4, 0.1% Tween-20, using an automated plate washer (MultiWash+, Molecular Devices, Sunnyvale, Calif.). Then, the plates were blocked with 200 μL of blocking buffers while shaking at 300 rpm at room temperature. The blocking buffers used were: Pierce™ Protein-Free (PBS) Blocking Buffer (PF), Blocker™ BLOTTO in TBS, SuperBlock™ Blocking Buffer, Blocker™ BSA (1×) in PBS. All blocking buffer were from ThermoFisher Scientific.
After 2 h the blocking buffers were removed using the same washing procedure mentioned above. 100 μL-aliquots of several dilutions of peptides biotinylated in 10 mM PBS pH 7.4 were placed in each well and incubated for 2 h while shaking at 300 rpm at room temperature. After the incubation, the unreacted peptides were removed by using the plate washer with the same settings. Then, 100 μL-aliquots of streptavidin-HRP (ThermoFisher Scientific) at a concentration of 20 ng/mL were added into each well and incubated for 30 min at room temperature without shaking. After the incubation, excess streptavidin-HRP was removed and the wells were washed with the plate washer five times using the washing buffer. Finally, 100 μL-aliquots of the Ultra TMB-ELISA Substrate Solution (ThermoFisher Scientific) were added and after 10 min the reaction was stopped by adding 100 μL aliquots of the TMB stop solution (SeraCare). The emission (450 nm) was read using a microplate reader (Clariostar Optima; BMG Labtech, Ortenberg, Germany).
The corresponding blank signals in triplicates were obtained by using all reagents without peptides. The blank signal was then subtracted to the average absorbance values for triplicate wells of each test. […]

In assay [2] the test system is intact ZIKV particles. As to the kind of experiment: Direct ELISA matrix effect in urine and serum. The format is binding, Zika virus (ZIKV). Particulars: urine diluted 1:1, serum 1:10; 10^5 and 10^6 copies/mL ZIKV coated. How it is done: Usually, the presence of ZIKV in affected bodies is detected in biological fluids. Therefore, the analytical sensitivity of the selected peptides was tested in two biological matrices, namely, urine and serum. The matrix effect was investigated to understand how real biological fluids could modify the binding efficiency of the peptides.
FIG. 4 depicts the ELISA data using solutions of peptides with or without the urine and serum obtained coating clear 96-well plates with 10^^5 and 10^^6 copies/mL of intact ZIKV particles. Urine and serum were 1:1 and 1:10 diluted, respectively, with a concentrated peptide PBS solution (10 mM PBS, pH 7.4) to obtain a peptide final concentration of 0.5 μM for C3 and C6, 5 μM for C7 and 20 μM for mono-arm peptides (P2 and X1).

The test system of assay [3] is three serotypes of DENV (DENV-1, -2 and -3). As to the kind of experiment: Direct ELISA cross-reactivity study, ZIKV vs DENV. The class given is binding, Dengue virus (DENV). Particulars: all DENV serotypes; plates coated with 10^5 copies/mL of intact virus particles. As for the experimental part:
as §1, §2, §3, §4

For the substance “C6: clamp peptide: AGRRP (20) - bridge GPGCCGPG (32) - LRGHA (25) (AGRRPGPGCCGPGLRGHA; C5 Binds to Active Site 2; Bridge peptide; C2 Binds to Active Site 1)”, in the assay on DENV-2, the “signal decrease, DENV-2 relative to ZIKV” value is on record as 45%. In addition, the “signal decrease, DENV-3 relative to ZIKV” value with DENV-3 amounted to 55%. Further, the “dynamic range width (orders of magnitude)” value (from here on “dynamic range width”) in the assay with intact ZIKV particles [1] is “three-order of magnitude dynamic range”. For the same substance, the “performance in urine and serum” value in the assay on intact ZIKV particles [2] is “strong decrease in the signal”.
For the substance “C-SWPGQ (CSWPGQ; P1) [mono-arm pentapeptide with N-terminal cysteine]”, the “dynamic range width” value in the assay on intact ZIKV particles [1] was “one order of magnitude dynamic range”.
With “C3: clamp peptide: WPWIGT (18) - bridge GPGCCGPG (32) - KRNATP (26) (WPWIGTGPGCCGPGKRNATP; C3 Binds to Active Site 2; Bridge peptide; C3 Binds to Active Site 1)”, in assay [3], the “signal decrease, DENV relative to ZIKV” value is given as “around 70%”. Besides, in the assay with intact ZIKV particles [1], the “dynamic range width” value is reported as “three-order of magnitude dynamic range”. In addition, the “performance in urine and serum” value in the assay with intact ZIKV particles [2] was “better performance in urine than serum”.
As for “C7: clamp peptide: MDSPIK (22) - bridge GPGCCGPG (32) - KRNATP (26) (MDSPIKGPGCCGPGKRNATP; C7 Binds to Active Site 2; Bridge peptide; C3 Binds to Active Site 1)”, the “signal decrease, DENV relative to ZIKV” value in assay [3] is listed as “around 70%”. In the assay on intact ZIKV particles [1], the “dynamic range width” value is given as “three-order of magnitude dynamic range”. Besides, the “performance in urine and serum” value with intact ZIKV particles [2] is reported as “best performance among the three clamp peptides, having higher signals in serum than in urine”.

These data come from patent publication US11249082B2, “Zika virus assay systems” (UNIVERSITY OF MIAMI, priority 2016, dated 2022).
